Data taken from patent US20140065706A1, “MATERIALS AND METHODS FOR MOBILIZING CELLS INCLUDING CD34+, HEMATOPOIETIC COLONY FORMING, AND ENDOTHELIAL COLONY FORMING CELLS” (Indiana University Research and Technology Corp., priority 2010, published 2014).

Key:
[1] = system: circulating endothelial colony forming cells (ECFC); assay: Circulating endothelial colony forming cells (ECFC) in human volunteers before and after meloxicam; assay type: in vivo; conditions: post 5 day regimen; before treatment only 4/7 had detectable ECFC
Protocol: For analysis of circulating ECFC, PB mononuclear cells were plated in media at 37° C., 5% CO2, 5% O2 in 6 well culture plates coated with type 1 collagen. Media was be replaced every other day for 7-14 days at which time the adherent colonies of endothelial cells (EC) are removed with Trypsin and replated in collagen coated culture wells at a single cell per well. After 14 days each well is visually examined to determine whether there are 2 or more cells per well and if so, the total number of EC counted.

[2] = system: progenitors from the bone marrow; assay: Mobilization of progenitors from the bone marrow (NSAID comparison); conditions: in vivo

## Cc1cnc(NC(=O)C2=C(O)c3ccccc3S(=O)(=O)N2C)s1 [Meloxicam, meloxicam]
[1]
  volunteers with detectable ECFC in 40 mL of blood post treatment: 7/7

## CC(=O)Oc1ccccc1C(=O)O [aspirin]
[2]
  ability to mobilize progenitors from the bone marrow: highly effective

## Cc1onc(-c2ccccc2)c1-c1ccc(S(N)(=O)=O)cc1 [valdecoxib]
[2]
  ability to mobilize progenitors from the bone marrow: unable to mobilize
